Measurements taken from ChEMBL document CHEMBL3526044, “Effect of albumin on human liver microsomal and recombinant CYP1A2 activities: impact on in vitro-in vivo extrapolation of drug clearance” (Drug Metab Dispos, 2012).
Each block holds one molecule with its values, some of them ahead of it.

Assays:
Cytochrome P450 1A2 [1] = molecular target: T1, Cytochrome P450 1A2 (Rattus norvegicus, UniProt P04799); assay: Competitive inhibition of rat recombinant CYP1A2 expressed in Escherichia coli assessed as inhibition of PHEN O-deethylation by dixon plot analysis; format: ADME
T1 sequence (P04799 whole entry): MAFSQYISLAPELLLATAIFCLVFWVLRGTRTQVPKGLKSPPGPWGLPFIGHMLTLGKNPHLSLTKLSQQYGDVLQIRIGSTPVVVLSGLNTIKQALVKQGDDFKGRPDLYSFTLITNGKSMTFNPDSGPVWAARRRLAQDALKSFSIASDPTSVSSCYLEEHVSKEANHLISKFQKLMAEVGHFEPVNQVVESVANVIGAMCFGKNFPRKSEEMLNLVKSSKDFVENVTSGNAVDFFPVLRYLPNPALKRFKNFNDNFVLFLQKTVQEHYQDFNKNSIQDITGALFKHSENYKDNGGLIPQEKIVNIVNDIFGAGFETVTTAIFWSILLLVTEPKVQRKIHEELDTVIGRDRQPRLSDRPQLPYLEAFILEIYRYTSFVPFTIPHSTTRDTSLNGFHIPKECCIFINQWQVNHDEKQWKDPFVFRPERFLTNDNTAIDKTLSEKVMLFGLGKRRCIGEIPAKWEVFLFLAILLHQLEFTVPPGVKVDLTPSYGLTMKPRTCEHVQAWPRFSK

Liver microsome [2] = assay: Drug metabolism in human liver microsomes assessed as retention time treated with 25 to 8000 uM lidocaine incubated for 5 mins prior to NADPH addition measured after 25 mins by HPLC analysis; format: ADME
Cytochrome P450 1A2 [3] = molecular target: T1, Cytochrome P450 1A2; assay: Binding affinity to rat recombinant CYP1A2 expressed in Escherichia coli assessed as fraction unbound by equilibrium dialysis method
Homo sapiens [4] = assay: Hepatic clearance in healthy human at 250 mg, iv; format: ADME, organism-based, Liver; conditions: in vivo
Homo sapiens [5] = assay: Intrinsic clearance in healthy human at 250 mg, iv; format: ADME, organism-based; conditions: in vivo
Liver microsome [6] = assay: Drug metabolism in human liver microsomes assessed as retention time at 2 to 2000 uM incubated for 5 mins prior to NADPH addition measured after 25 mins by HPLC analysis; format: ADME
[7] = Stability of the compound assessed as retention time by HPLC analysis
Cytochrome P450 1A2 [8] = molecular target: T1, Cytochrome P450 1A2; assay: Binding affinity to rat recombinant CYP1A2 expressed in Escherichia coli assessed as fraction unbound by equilibrium dialysis method in presence of BSA; format: ADME
[9] = Fraction unbound in human liver microsomes by equilibrium dialysis method
[10] = (§1) Drug metabolism in human liver microsomes assessed as enzyme-mediated O-deethylation incubated for 5 mins prior to NADPH addition measured after 25 mins by Michaelis-Menten equation analysis in presence of BSA; format: ADME; conditions: liver microsomes
Liver microsome [11] = assay: as §1; format: ADME; conditions: microsomes, 25 min
[12] = Fraction unbound in human liver microsomes by equilibrium dialysis method in presence of BSA
[13] = (§2) Drug metabolism in human liver microsomes assessed as enzyme-mediated O-deethylation incubated for 5 mins prior to NADPH addition measured after 25 mins by Michaelis-Menten equation analysis; format: ADME; conditions: liver microsomes
Liver microsome [14] = assay: as §2; format: ADME; conditions: microsomes, 25 min
[15] = substrate: CCOc1ccc(NC(C)=O)cc1; assay: Activity of rat recombinant CYP1A2 expressed in Escherichia coli assessed as enzyme-mediated O-deethylation after 7.5 mins by Michaelis-Menten equation analysis in presence of BSA; format: ADME
[16] = substrate: CCOc1ccc(NC(C)=O)cc1; assay: Activity of rat recombinant CYP1A2 expressed in Escherichia coli assessed as enzyme-mediated O-deethylation after 7.5 mins by Michaelis-Menten equation analysis; format: ADME

Molecule: CCCCCCCC/C=C\CCCCCCCC(=O)[O-].[Na+]
- Ki (Cytochrome P450 1A2 [1]): 16.7 µM

- Ki (Cytochrome P450 1A2 [1]): 13.6 µM
Molecule: CCCCC/C=C\C/C=C\CCCCCCCC(=O)O [SODIUM LINOLATE]

- Retention_time (Liver microsome [2]): 4.4 min
Molecule: CCNCC(=O)Nc1c(C)cccc1C

- fraction unbound (Cytochrome P450 1A2 [3]): 0.98
- CLH (Homo sapiens [4]): 71 L/h
- CL (Homo sapiens [5]): 933 L/h
- Retention_time (Liver microsome [6]): 13 min
- Retention_time [7]: 3.6 min
- fraction unbound (Cytochrome P450 1A2 [8]): 0.8
- fraction unbound [9]: 0.98
- Km at 25 min ([10]; read-out: KmH): 6.6 µM
- Km at 25 min ([10]; read-out: KmL): 881 µM
- VmaxH (Liver microsome [11]): 772 pmol/min
- VmaxL (Liver microsome [11]): 820 pmol/min
- fraction unbound [12]: 0.78
- Km at 25 min ([13]; read-out: KmH): 27.8 µM
- Km at 25 min ([13]; read-out: KmL): 867 µM
- VmaxH (Liver microsome [14]): 811 pmol/min
- VmaxL (Liver microsome [14]): 523 pmol/min
Molecule: CCOc1ccc(NC(C)=O)cc1 [PHENACETIN]

Molecule: CCCCC/C=C\C/C=C\C/C=C\C/C=C\CCCC(=O)O
- Ki (Cytochrome P450 1A2 [1]): 4.7 µM

B1: Cytochrome P450 1A2 (Rattus norvegicus) (protein)
chain: T1 sequence (P04799 whole entry)
- Km [15]: 3.8 µM
- Vmax [15]: 4.65e-05 µmol/min
- Km [16]: 13.6 µM
- Vmax [16]: 3.97e-05 µmol/min
